This passage reports IC50 results from patent publication US9023855B2, “Compounds” (Chiesi Farmaceutici S.p.A., priority 2011, dated 2015).

Some results are limits rather than exact numbers.

This assay concerns the target T1, human neutrophil elastase (HNE) (Homo sapiens, UniProt P08246).
T1 construct: purchased Sigma E8140
T1 sequence (P08246 30-267): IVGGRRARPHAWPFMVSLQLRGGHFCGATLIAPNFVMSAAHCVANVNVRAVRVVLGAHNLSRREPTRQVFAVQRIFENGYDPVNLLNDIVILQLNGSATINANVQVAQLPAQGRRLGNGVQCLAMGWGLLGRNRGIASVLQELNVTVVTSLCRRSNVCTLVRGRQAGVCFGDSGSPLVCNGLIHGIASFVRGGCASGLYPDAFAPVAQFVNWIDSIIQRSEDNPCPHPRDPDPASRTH
The assay is described as follows: HNE enzyme assay (fluorogenic peptide substrate MeOSuc-Ala-Ala-Pro-Val-AMC). It counts as biochemical. To be noted: human leukocyte elastase, substrate 100 μM, 25° C., 30 minutes, at least two separate experiments; read-out: HNE inhibition (IC50 values). Here is the method:
Compounds of this invention were tested for potency in a human neutrophil elastase (HNE) enzyme activity assay.
Assays were performed in 96-well plates in a total assay volume of 100 μl. The final concentration of elastase enzyme (human leukocyte elastase, Sigma E8140) was 0.0036 units/well […]. The peptide substrate (MeOSuc-Ala-Ala-Pro-Val-AMC, Calbiochem #324740) was used at a final concentration of 100 μM. The final concentration of DMSO was 1% in the assay buffer (0.05M Tris.HCl, 0.1M NaCl, 0.1M CaCl2, 0.0005% brij-35, pH 7.5). The enzymatic reaction was started by addition of the enzyme and incubated at 25° C. for 30 minutes. After incubation, the reaction was stopped by addition of soybean trypsin inhibitor (Sigma T9003) at a final concentration of 50 μg/well. Fluorescence was measured using a Molecular Devices fluorescence plate reader using 380 nm excitation and 460 nm emission wavelengths.
A dose response to each compound was performed, and the effect of the compound in each experiment was expressed as a percentage inhibition of the control enzyme fluorescence. Dose response curves were plotted and compound potency (IC50) was determined. Compounds were tested in at least two separate experiments.
Consider `COC(=O)C1=C(C)N(c2cccc(C(F)(F)F)c2)c2nn(-c3ccc(S(C)(=O)=O)cc3)c(=O)n2C1c1ccc(C#N)cc1` (stereo not shown) [Example 15, 5-(4-Cyano-phenyl)-2-(4-methanesulfonyl-phenyl)-7-methyl-3-oxo-8-(3-trifluoromethyl-phenyl)-2,3,5,8-tetrahydro-[1,2,4]triazolo[4,3-a]pyrimidine-6-carboxylic acid methyl ester], for which the IC50 (in general, the concentration that inhibits the measured activity by half) was less than 20 nM. As for `COC(=O)C1=C(C)N(c2cccc(C(F)(F)F)c2)c2nn(Cc3ccc(C[N+](C)(C)C)cc3)c(=O)n2C1c1ccc(C#N)cc1` (stereo not shown) [Example 22, {4-[5-(4-Cyano-phenyl)-6-methoxycarbonyl-7-methyl-3-oxo-8-(3-trifluoromethyl-phenyl)-5,8-dihydro-[1,2,4]triazolo[4,3-a]pyrimidin-2-ylmethyl]-benzyl}-trimethyl-ammonium bromide], the figure is less than 20 nM.

For `COC(=O)C1=C(C)N(c2cccc(C(F)(F)F)c2)c2nn(CC(=O)N(C)CCCN(C)C)c(=O)n2C1c1ccc(C#N)cc1` (stereo not shown) [Example 26, 5-(4-Cyano-phenyl)-2-{[(3-dimethylamino-propyl)-methyl-carbamoyl]-methyl}-7-methyl-3-oxo-8-(3-trifluoromethyl-phenyl)-2,3,5,8-tetrahydro-[1,2,4]triazolo[4,3-a]pyrimidine-6-carboxylic acid methyl ester], the IC50 is less than 20 nM. Then `COC(=O)C1=C(C)N(c2cccc(C(F)(F)F)c2)c2nn(CC(=O)N(C)CCCCC[N+](C)(C)C)c(=O)n2[C@@H]1c1ccc(C#N)cc1` [Example 34, (R)-[5-({2-[5-(4-Cyano-phenyl)-6-methoxycarbonyl-7-methyl-3-oxo-8-(3-trifluoromethyl-phenyl)-5,8-dihydro-[1,2,4]triazolo[4,3-a]pyrimidin-2-yl]-acetyl}-methyl-amino)pentyl]-trimethyl-ammonium chloride], with less than 20 nM. As to `COC(=O)C1=C(C)N(c2cccc(C(F)(F)F)c2)c2nn(CC(=O)N(C)CCCCCN(C)C)c(=O)n2C1c1ccc(C#N)cc1` (stereo not shown) [Example 30, 5-(4-Cyano-phenyl)-2-{[(5-dimethylamino-pentyl)-methyl-carbamoyl]-methyl}-7-methyl-3-oxo-8-(3-trifluoromethyl-phenyl)-2,3,5,8-tetrahydro-[1,2,4]triazolo[4,3-a]pyrimidine-6-carboxylic acid methyl ester], the IC50 was less than 20 nM. As for `COC(=O)C1=C(C)N(c2cccc(C(F)(F)F)c2)c2n[nH]c(=O)n2C1c1ccc(C#N)cc1S(C)(=O)=O` (stereo not shown) [Example 13, 5-(4-Cyano-2-methanesulfonyl-phenyl)-7-methyl-3-oxo-8-(3-trifluoromethyl-phenyl)-2,3,5,8-tetrahydro-[1,2,4]triazolo[4,3-a]pyrimidine-6-carboxylic acid methyl ester], the IC50 was less than 20 nM.

On to `COC(=O)C1=C(C)N(c2cccc(C(F)(F)F)c2)c2nn(CC(N)=O)c(=O)n2C1c1ccc(C#N)cc1` (stereo not shown) [Example 2, 2-Carbamoylmethyl-5-(4-cyanophenyl)-7-methyl-3-oxo-8-(3-trifluoromethylphenyl)-2,3,5,8-tetrahydro-[1,2,4]triazolo[4,3-a]pyrimidine-6-carboxylic acid methyl ester], for which the IC50 is less than 20 nM.
